From patent US20190110971A1, “COMPOSITIONS FOR MANAGING PLAQUE FORMATION” (THE REGENTS OF THE UNIVERSITY OF CALIFORNIA, priority 2016, published 2019)

What follows are compounds tested on bracket-induced plaque formation (saliva-derived plaques on HA discs with brackets) (assay: in vitro bracket-induced biofilm model system, crystal violet assay). Settings: in vitro grown plaques from pooled human saliva, FIG. 5B/5C.
Format: cell-based
Description: These discs were then fitted into 12-well tissue culture plates for the growth of saliva-derived plaques. One unique feature of this system is use of a new culture medium developed by this laboratory (Shi-medium, Tian Y 2010) which allows the biofilm grown in vitro to be very similar to in vivo human plaque.
A mixed pool of human saliva samples was collected from 10 volunteers to develop in vitro grown plaques on the model system developed above. Amino acids and sugar monomers and analogs were selected mostly from the list of FDA Generally Recognized As Safe (GRAS) compounds (http://www.fda.gov/Food/Ingredients PackagingLabeling/GRAS/SCOGS/ default.htm). The anti-biofilm inhibitory function of these chemicals was assayed with a crystal violet assay (Sharma A 2005), as illustrated in FIG. 5A. The compounds with more than 10× inhibitory effects were further investigated.

| Compound | inhibitory effects against bracket-induced plaque formation |
| --- | --- |
| C[C@@H](N)C(=O)O [D-Ala, D-alanine] | strong inhibitory effects |
| NCCCC[C@@H](N)C(=O)O [D-Lys, D-lysine] | strong inhibitory effects |
| C[C@H](O)[C@@H](N)C(=O)O [D-Thr, D-threonine] | strong inhibitory effects |
| N=C(N)NCCC[C@H](N)C(=O)O [L-Arg, L-arginine] | strong inhibitory effects |
| NCCCC[C@H](N)C(=O)O [L-Lys, L-lysine] | strong inhibitory effects |
| CC(=O)N[C@H]1C(O)O[C@H](CO)[C@@H](O)[C@@H]1O (stereo partly drawn) [N-acyl-Glucosamine, N-acetylglucosamine] | strong inhibitory effects |
